Several values for one entry are separate records, joined by “and”; a condition that tells them apart may be missing. Equal entries are not always repeated.
Columns and labels:
[1] = target: T1, cloned rat steroid 5α-reductase (Rattus norvegicus, UniProt P24008); experiment: substrate specificity / inhibition of cloned rat liver steroid 5α-reductase expressed in Xenopus oocytes; conditions: for substrate for the cloned enzyme: 5 μM 14C-labeled steroid
T1 sequence (P24008 5-259): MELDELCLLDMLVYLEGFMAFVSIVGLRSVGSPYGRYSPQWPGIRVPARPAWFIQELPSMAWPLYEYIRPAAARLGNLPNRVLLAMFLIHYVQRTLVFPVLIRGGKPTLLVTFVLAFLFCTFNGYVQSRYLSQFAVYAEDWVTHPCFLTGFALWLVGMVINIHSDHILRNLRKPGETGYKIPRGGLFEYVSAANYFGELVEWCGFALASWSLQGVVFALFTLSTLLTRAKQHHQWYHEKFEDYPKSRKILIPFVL
Experimental: The various steroids and metabolites are identified on the left and right of the autoradiograms: P, progesterone ; 5αP, 5α-dihydroprogesterone; others are as indicated in the legend to FIG. 2. The amount of 5α-reduced metabolites for each substrate is indicated at the bottom of the figure and was determined by liquid scintillation counting after cutting out appropriate zones from the chromatograms.
Steroid 5α-Reductase Enzyme Assay. Stage 5 and 6 oocytes were surgically removed from female Xenopus laevis (NASCO, Fort Atkinson , Wis.) and collagenase-treated as described by Julius et al., (1988). Oocytes were injected with 50-100 nl of RNA (1 μg/μl) as described by Peacock et al. (Peacock et al., 1988). After injection the oocytes were incubated at 19° C. for 24 hours in modified Barth's saline solution (Peacock et al., 1988) containing 1 mg/ml bovine serum albumin (BSA) to allow expression of the injected RNA. Five to ten viable oocytes were then transferred to 1 ml of modified Barth's saline solution containing 5 μM ^14 C-labeled steroid (50 mCi/mmol, Du Pont-New England Nuclear), and incubated at 37° C. for 2-24 h. This temperature-jump protocol is based on the observation that expression of mRNA in Xenopus is maximal a 19° C., whereas rat steroid 5α-reductase expressed in Xenopus has a temperature optima of 37° C. After the 37° C. incubation, the oocytes were homogenized in the incubation medium and steroid was extracted with 10 ml of dichloromethane. The solvent was evaporated under air and the residue was dissolved in 0.1 ml of chloroform/methanol (2:1, v/v) and subjected to thin-layer chromatography using Siica Gel 60 thin-layer chromatography plates (E. merck, 5748-7, Darmstadt, West Germany). The chromatoplates were autoradiographed for 18 hours at -70° C. and the radioactive zones were cut out and subjected to liquid scintillation counting in Complete Counting Cocktail (Research Products International). The identities of the products were determined by comparison to the Rf values of known standards.
(§12) The oocytes were then incubated with different radiolabeled steroids for an additional 24 hours and the products formed were analyzed by thin-layer chromatography (TLC).

[2] = target: T2, human steroid 5α-reductase 1 (Homo sapiens, UniProt P18405); experiment: steroid 5α-reductase activity/inhibition in vitro, homogenates of COS cells expressing human steroid 5α-reductase 1 cDNA (Table III); conditions: human enzyme
T2 sequence (P18405 1-259): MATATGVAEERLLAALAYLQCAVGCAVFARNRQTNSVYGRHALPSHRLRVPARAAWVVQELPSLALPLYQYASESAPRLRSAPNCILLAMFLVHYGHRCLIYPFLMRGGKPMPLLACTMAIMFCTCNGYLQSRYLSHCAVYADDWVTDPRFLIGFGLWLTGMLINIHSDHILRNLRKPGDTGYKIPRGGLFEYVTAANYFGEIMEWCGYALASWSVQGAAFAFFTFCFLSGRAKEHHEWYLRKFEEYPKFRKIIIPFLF
Text: (§1) Expression Vector Construction. A rat steroid 5α-reductase cDNA corresponding to nucleotides 1-1962 (see Example 1) was ligated into the pCMV4 expression vector (Andersson et al., 1989b). A human cDNA corresponding to nucleotides 1 to 842 of FIG. 7 was initially ligated into pCMV4. […] After amplification, the product was ligated into pCMV4.
(§2) Expression of Steroid 5α-Reductase 1 cDNAs in COS Cells. Simian COS-M6 cells were transfected as described by Andersson et al. (1989b). The assay of steroid 5α-reductase activity in intact cells was carried out as described in Example 1 except that [^14 C]-labeled steroid dissolved in ethanol were added to the transfected cell medium and subsequent organic extractions were carried out with dichloromethane. TLC and liquid scintillation counting were performed as described in Example 1.
(§3) To assay steroid 5α-reductase activity in vitro, cells were harvested 48 hours after transfection, washed once with phosphate buffered saline and either frozen in liquid N2 or homogenized directly with a Polytron in 10 mM potassium phosphate (pH 7.4), 150 mM KCl and 1 mM EDTA, at a protein concentration of 2 mg/ml. A typical assay contained 10 to 50 μg of cell homogenate protein in 0.5 ml of 0.1M potassium phosphate buffer (pH 6.6, rat enzyme; pH 7.0, human enzyme). Steroids were added in 5 μl ethanol, and the reaction was initiated by the addition of NADPH to a final concentration of 2-5 mM. Incubations were carried out for 10 min at 37° C. and terminated by the addition of 5 ml dichloromethane. Organic execrations and thin-layer chromatography analysis were as described above.
(§4) The apparent Km and Vmax values in this system were determined in vitro with five different steroid substrates (Table III).
(§5) The apparent Ki values were then determined for 4-aza-steroid (4-MA and MK-906) inhibition of 5α-reductases expressed in COS cells. […] The data obtained were analyzed using Dixon plots to determine the type of inhibition and the apparent Ki value (Dixon et al., 1979).
(§6) COS call transfaction, cell homogonate preparation, and enzyme assay were
(§7) carried out as described in Materials and Methods. Each Km value
(§8) represents the average of at least two experiments carried out on
(§9) different days using cell lysates prepared from different transfections.

rat steroid 5α-reductase [3] = target: T3, rat steroid 5α-reductase (Rattus norvegicus, UniProt P24008); experiment: steroid 5α-reductase activity/inhibition in vitro, homogenates of COS cells expressing rat cDNA (Table III); conditions: rat enzyme
T3 sequence (P24008 5-259): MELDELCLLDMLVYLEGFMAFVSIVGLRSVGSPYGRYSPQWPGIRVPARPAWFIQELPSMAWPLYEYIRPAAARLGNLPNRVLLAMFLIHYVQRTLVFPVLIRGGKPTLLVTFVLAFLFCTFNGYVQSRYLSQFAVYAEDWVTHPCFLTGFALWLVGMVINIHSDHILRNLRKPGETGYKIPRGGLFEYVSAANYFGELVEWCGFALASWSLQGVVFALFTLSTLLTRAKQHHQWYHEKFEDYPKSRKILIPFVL
Text: as §1, §2, §3, §4, §5, §6, §7, §8, §9

[4] = target: T2, human steroid 5α-reductase 1; experiment: steroid 5α-reductase assay in intact transfected COS cells, human type 1 cDNA; assay type: cell-based; design: Human 5α-reductase 1 is 259 residues long; expressed in transfected cells; host or cells: simian COS-M6 cells, pCMV4 vector; conditions: human steroid 5α-reductase 1 expressed in COS cells; 37° C., 2 hr
Text: as §1, §2
(§10) COS cells were transiently transfected with expression vectors harboring the rat or human steroid 5α-reductase 1 cDNAs, or with the pCMV4 vector alone.
(§11) IC50 values for MK-906 and 4-MA inhibition of 5α-reductases expressed in COS cells were also determined. […] See Example 6 and FIG. 15, for further analysis of 4-aza-steroid inhibition.

[5] = system: endogenous Xenopus enzyme (presumably a 17β-hydroxysteroid dehydrogenase); experiment: conversion of steroids by endogenous Xenopus oocyte enzymes (control for nonspecific inhibition); assay type: cell-based, Xenopus laevis; conditions: 5 μM substrate, 5 μM inhibitor
Experimental: Steroid 5α-Reductase Enzyme Assay. Stage 5 and 6 oocytes were surgically removed from female Xenopus laevis (NASCO, Fort Atkinson , Wis.) and collagenase-treated as described by Julius et al., (1988). Oocytes were injected with 50-100 nl of RNA (1 μg/μl) as described by Peacock et al. (Peacock et al., 1988). After injection the oocytes were incubated at 19° C. for 24 hours in modified Barth's saline solution (Peacock et al., 1988) containing 1 mg/ml bovine serum albumin (BSA) to allow expression of the injected RNA. Five to ten viable oocytes were then transferred to 1 ml of modified Barth's saline solution containing 5 μM ^14 C-labeled steroid (50 mCi/mmol, Du Pont-New England Nuclear), and incubated at 37° C. for 2-24 h. […] After the 37° C. incubation, the oocytes were homogenized in the incubation medium and steroid was extracted with 10 ml of dichloromethane. The solvent was evaporated under air and the residue was dissolved in 0.1 ml of chloroform/methanol (2:1, v/v) and subjected to thin-layer chromatography using Siica Gel 60 thin-layer chromatography plates (E. merck, 5748-7, Darmstadt, West Germany). […] The identities of the products were determined by comparison to the Rf values of known standards.
as §12

steroid 5α-reductase = conditions: Liang et al., 1985; cited from earlier work
rat steroid 5α-reductase [6] = target: T3, rat steroid 5α-reductase; experiment: steroid 5α-reductase assay in intact transfected COS cells, rat cDNA; assay type: cell-based; design: the open reading frame would encode a hydrophobic protein of 255 amino acids; expressed in transfected cells; host or cells: simian COS-M6 cells, pCMV4 vector; conditions: rat enzyme expressed in COS cells; 37° C., 2 hr
Text: as §1, §2, §10, §11

[7] = substrate: C[C@]12CC[C@H]3[C@@H](CCC4=CC(=O)CC[C@@]43C)[C@@H]1CC[C@@H]2O; experiment: cells, lysate or membranes named; conditions: 0.6 to 20 μM substrate, Lineweaver-Burk, 37.0 °C
[8] = substrate: CC(=O)[C@H]1CC[C@H]2[C@@H]3CCC4=CC(=O)CC[C@]4(C)[C@H]3CC[C@]12C; experiment: cells, lysate or membranes named; conditions: 0.6 to 20 μM substrate, Lineweaver-Burk, 37.0 °C
Experimental: (§13) To assay steroid 5α-reductase activity in vitro, cells were harvested 48 hours after transfection, washed once with phosphate buffered saline and either frozen in liquid N2 or homogenized directly with a Polytron in 10 mM potassium phosphate (pH 7.4), 150 mM KCl and 1 mM EDTA, at a protein concentration of 2 mg/ml. A typical assay contained 10 to 50 μg of cell homogenate protein in 0.5 ml of 0.1M potassium phosphate buffer (pH 6.6, rat enzyme; pH 7.0, human enzyme). Steroids were added in 5 μl ethanol, and the reaction was initiated by the addition of NADPH to a final concentration of 2-5 mM. Incubations were carried out for 10 min at 37° C. and terminated by the addition of 5 ml dichloromethane. Organic execrations and thin-layer chromatography analysis were as described above. The formation of 5α-reduced steroid products was linear with respect to protein over a 10 to 50 μg range and with respect to incubation time over a 1 to 30 minute period.

[9] = substrate: C[C@]12CCC(=O)C=C1CC[C@@H]1[C@@H]2CC[C@]2(C)C(=O)CC[C@@H]12; experiment: cells, lysate or membranes named; conditions: 0.6 to 20 μM substrate, Lineweaver-Burk, 37.0 °C
Experimental: as §13

[10] = read-out: apparent Ki, two [14C]testosterone concentrations, Dixon plots
[11] = other: rat enzyme in COS cell homogenate
[12] = other: human enzyme in COS cell homogenate

C[C@]12CC[C@H]3[C@@H](CCC4=CC(=O)CC[C@@]43C)[C@@H]1CC[C@@H]2O [Testosterone, testosterone]
reduction of the testosterone substrate ([1]; intact rat steroid 5α-reductase RNA in oocytes (FIG. 6A)): 67%

C[C@]12C[C@H](O)[C@H]3[C@@H](CCC4=CC(=O)CC[C@@]43C)[C@@H]1CC[C@@H]2C(=O)CO [Corticosterone, corticosterone]
activity towards 11β-substituted steroids [2]: very low activities
activity towards 11β-substituted steroids (rat steroid 5α-reductase [3]): very low activities

C[C@]12CCC(=O)C=C1CC[C@@H]1[C@@H]2CC[C@]2(C)C(=O)CC[C@@H]12 [Androstenedione, androstenedione]
substrate for the cloned enzyme [1]: substrates for the cloned enzyme

CCN(CC)C(=O)[C@H]1CC[C@H]2[C@@H]3CC[C@H]4N(C)C(=O)CC[C@]4(C)[C@H]3CC[C@]12C [4-MA, 17α-N,N-diethylcarbamoyl-4-methyl-4-aza-5α-androtane-3-one]
IC50 inhibition, relative potency of 4-MA versus MK-906 [4]: approximately ten-fold more potent than MK-906
apparent Ki (in words) [2]: low nanomolar range
type of inhibition ([2]; Dixon plots): competitive
Ki [2, 10]: 7 nM and 8 nM
effect on conversion of dihydrotestosterone into other 5α-reduced metabolites by endogenous Xenopus enzymes [5]: no effect
effect on conversion of testosterone into androstenedione by endogenous Xenopus enzyme [5]: not inhibited
effect on reduction of androstenedione ([1]; 5 μM substrate, 5 μM inhibitor): efficiently blocked
effect on reduction of progesterone ([1]; 5 μM substrate, 5 μM inhibitor): efficiently blocked
effect on formation of 5α-reduced products from testosterone ([1]; equimolar testosterone and inhibitor (5 μM each)): substantial decrease
type of inhibition (steroid 5α-reductase): competitive inhibitors
apparent Ki (in words) (rat steroid 5α-reductase [3]): low nanomolar range
type of inhibition (rat steroid 5α-reductase [3]; Dixon plots): competitive
Ki (rat steroid 5α-reductase [3]; [10]): 5 nM and 7 nM
IC50 inhibition, relative potency of MK-906 and 4-MA (rat steroid 5α-reductase [6]): equipotent

CC(=O)[C@H]1CC[C@H]2[C@@H]3CCC4=CC(=O)CC[C@]4(C)[C@H]3CC[C@]12C [Progesterone, progesterone]
substrate for the cloned enzyme [1]: substrates for the cloned enzyme

C[C@]12CCC(=O)C=C1CC[C@@H]1[C@@H]2[C@@H](O)C[C@@]2(C)[C@H]1CC[C@]2(O)C(=O)CO [Cortisol, cortisol]
activity towards 11β-substituted steroids [2]: very low activities
activity towards 11β-substituted steroids (rat steroid 5α-reductase [3]): very low activities

B1: rat steroid 5α-reductase (Rattus norvegicus) (protein)
chain: MELDELCLLDMLVYLEGFMAFVSIVGLRSVGSPYGRYSPQWPGIRVPARPAWFIQELPSMAWPLYEYIRPAAARLGNLPNRVLLAMFLIHYVQRTLVFPVLIRGGKPTLLVTFVLAFLFCTFNGYVQSRYLSQFAVYAEDWVTHPCFLTGFALWLVGMVINIHSDHILRNLRKPGETGYKIPRGGLFEYVSAANYFGELVEWCGFALASWSLQGVVFALFTLSTLLTRAKQHHQWYHEKFEDYPKSRKILIPFVL
Km [7, 11]: 2.5 µM
Km [8, 11]: 0.5 µM
Km [9, 11]: 2.8 µM

B2: human steroid 5α-reductase 1 (Homo sapiens) (protein)
chain: MATATGVAEERLLAALAYLQCAVGCAVFARNRQTNSVYGRHALPSHRLRVPARAAWVVQELPSLALPLYQYASESAPRLRSAPNCILLAMFLVHYGHRCLIYPFLMRGGKPMPLLACTMAIMFCTCNGYLQSRYLSHCAVYADDWVTDPRFLIGFGLWLTGMLINIHSDHILRNLRKPGDTGYKIPRGGLFEYVTAANYFGEIMEWCGYALASWSVQGAAFAFFTFCFLSGRAKEHHEWYLRKFEEYPKFRKIIIPFLF
Km [7, 12]: 3.6 µM
Km [8, 12]: 0.8 µM
Km [9, 12]: 1.7 µM

Source: patent US5679521A, “Steroid 5A-reductases” (priority 1995, dated 1997)
